Structures are written as SMILES. ≈ marks a conversion by molar mass, not a printed value. Like-named read-outs stand apart in the source and are kept apart here.

7 compounds from patent US5629430A, “Trifluoromethylpyrroloindolecarboxylic acid ester and process for production thereof” (Kyorin Pharmaceutical Co., Ltd., priority 1992, dated 1997) can be followed below.

The subject of assay [1] is P388 mouse leukemia cells. Nature of the assay: Activity against tumor cell growth (P388, MTT, 72 h). The settings on record: read-out: IC50 (50% growth inhibition concentration). It is filed as cell-based. An outline of the steps: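 P388 cells at 1.5×10^5 cells/ml in RPMI1640 with 10% FBS, 2 mM glutamine and 5 μM 2-hydroxyethyldisulfide; DMSO-dissolved compound diluted in medium, 72 h at 37 °C, 5% CO2. MTT added for 3 h, formazan dissolved in HCl-isopropanol, A540 read. IC50 from absorbance ratio versus untreated cells.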

For the next assay, the system named is Colon-26 cells. Nature of the assay: Antineoplastic activity, mice having Colon-26 cells transplanted subcutaneously. Type of assay: in vivo, mouse (female, CDF1 strain). To be noted: Mus musculus, Colon 26, iv, 168 h, read-out: T/C (average tumor weight, dosed vs. solvent-dosed control). How it is done: The test compound was dissolved in dimethylsulfoxide, and the solution was adequately diluted with 10% Emulfore EL620(produced by Rhone Poulenc Co.) to prepare the test compound solution. The antineoplastic activity was evaluated as below.
To the lateral region of a female mouse (CDF1 strain, 8 to 12 week age), 1×10^6 Colon-26 cells were transplanted subcutaneously. On the sixth day after the transplantation, the test medicine solution-was injected into the tail vein in a single dose. Seven to twelve mice were employed for the solvent-dosed control group, and five mice were employed for the dosed group. One week after the dosage, the tumor was cut out, and the weight thereof was measured. The antineoplastic effect was evaluated by the ratio (T/C) of the average tumor weight of the dosed group (T) to the average tumor weight of the solvent-dosed control group (C).

Setting [2] is: P388 mouse leukemia cells, 72 h, 37° C., MTT.

In the case of `COC(=O)c1c(C(F)(F)F)[nH]c2c1[C@@]13C[C@@H]1CN(C(=O)c1cc4cccc(OC)c4o1)C3=CC2=O` [Example 86, Methyl (7bR, 8aS)-2-(7-methoxybenzofuran-2-ylcarbonyl)-6-trifluoromethyl-1,2,8,8a-tetrahydrocyclopropa[c]pyrrolo[3,2-e]indol-4 (5H)-one-7-carboxylate], the IC50 in assay [1] (setting [2]) was found to be 1.1 ng/mL (≈ 2.26 nM). Moreover, the response vs control in vivo at 0.5 mg/kg with Colon-26 cells (i.v. 0.5 mg/kg single dose on sixth day, tumor weighed one week after dosage) turned out to be 40%.

For `COC(=O)c1c(C(F)(F)F)[nH]c2c1[C@@]13C[C@@H]1CN(C(=O)/C=C/c1ccc(OC)cc1)C3=CC2=O` [Example 90, Methyl (7bR, 8aS)-2-[2-(4-methoxyphenyl)ethylene-1-ylcarbonyl)-6-trifluoromethyl-1,2,8,8a-tetrahydrocyclopropa[c]pyrrolo[3,2-e]indol-4 (5H)-one-7-carboxylate], in assay [1] (setting [2]), the IC50 was determined as 0.9 ng/mL (≈ 1.91 nM). For the same compound, the response vs control in vivo at 1 mg/kg in the assay on Colon-26 cells (i.v. 1.0 mg/kg single dose on sixth day, tumor weighed one week after dosage) was 31%.

In the case of `COC(=O)c1c(C(F)(F)F)[nH]c2c(OC(=O)N3CCN(C)CC3)cc3c(c12)[C@H](CCl)CN3C(=O)c1cc2cc(NC(=O)c3cc4c(OC)c(OC)c(OC)cc4cn3)ccc2[nH]1` [Example 97], the IC50 in assay [1] (Mus musculus, P388, 72 h) came to 5.8 ng/mL (≈ 6.6 nM). For the same compound, in the assay with Colon-26 cells, the response vs control in vivo at 0.5 mg/kg is 11%.

With `COC(=O)c1c(C(F)(F)F)[nH]c2c(OC(=O)N3CCN(C)CC3)cc3c(c12)[C@H](CCl)CN3C(=O)c1cc2cc(NC(=O)c3cc4c(cn3)[nH]c3ccccc34)ccc2[nH]1` [Example 98, Methyl (1S)-1-chloromethyl-5-(4-methylpiperazin-1-ylcarbonyl)oxy-3-[5-[(9H-pyrido[3,4-b]indol-3-ylcarbonyl)amino]-1H-indol-2-ylcarbonyl]-7-trifluoromethyl-1,2,3,6-tetrahydropyrrolo[3,2-e]indole-8-carboxylate], the IC50 in assay [1] (Mus musculus, P388, 72 h) is 5.7 ng/mL (≈ 6.89 nM). Moreover, the response vs control in vivo at 0.5 mg/kg in the assay with Colon-26 cells was 29%.

`COC(=O)c1c(C(F)(F)F)[nH]c2c(OC(=O)N3CCN(C)CC3)cc3c(c12)[C@H](CCl)CN3C(=O)c1cc2cc(NC(=O)c3cc4ccccc4cn3)ccc2[nH]1` [Example 107, Methyl (1S)-1-chloromethyl-3-[5-[(isoquinolin-3-ylcarbonyl)amino]-1H-indol-2-ylcarbonyl]-5-(4-methylpiperazin-1-ylcarbonyl)oxy-7-trifluoromethyl-1,2,3,6-tetrahydropyrrolo[3,2-e]indole-8-carboxylate]: the IC50 in assay [1] (Mus musculus, P388, 72 h) turned out to be 4.6 ng/mL (≈ 5.84 nM). Besides, the response vs control in vivo at 0.5 mg/kg in the assay on Colon-26 cells was 7%.

In the case of `COC(=O)c1c(C(F)(F)F)[nH]c2c(O)cc3c(c12)[C@H](CCl)CN3C(=O)c1cc2cc(NC(=O)Nc3ccc4[nH]c(C(=O)N5C[C@@H](CCl)c6c5cc(O)c5[nH]c(C(F)(F)F)c(C(=O)OC)c65)cc4c3)ccc2[nH]1` [Example 108, (S,S)-3-3'-[Carbonylbis(imino-1H-indol-5,2-dicarbonyl)]bis-[1-chloromethyl-5-hydroxy-7-trifluoromethyl-1,2,3,6-tetrahydropyrrolo[3,2-e]indole-8-carboxylic acid methyl ester]], the IC50 in assay [1] (setting [2]) amounted to 0.007 ng/mL (≈ 0.00673 nM). In the assay with Colon-26 cells (i.v. 0.0156 mg/kg single dose on sixth day, tumor weighed one week after dosage), the response vs control in vivo at 0.0156 mg/kg amounted to 6%.

In the case of `COC(=O)c1c(C(F)(F)F)[nH]c2c(OC(=O)N3CCN(C)CC3)cc3c(c12)[C@H](CCl)CN3C(=O)c1cc2cc(NC(=O)Nc3ccc4[nH]c(C(=O)N5C[C@@H](CCl)c6c5cc(OC(=O)N5CCN(C)CC5)c5[nH]c(C(F)(F)F)c(C(=O)OC)c65)cc4c3)ccc2[nH]1` [Example 109, (S,S)-3-3'-[Carbonylbis(imino-1H-indol-5,2-dicarbonyl)]bis-[1-chloromethyl-5-(4-methylpiperazin-1-ylcarbonyl)oxy-7-trifluoromethyl-1,2,3,6-tetrahydropyrrolo[3,2-e]indole-8-carboxylic acid methyl ester]], the IC50 in assay [1] (Mus musculus, P388, 72 h) was found to be 53 ng/mL (≈ 41 nM). Besides, the response vs control in vivo at 0.25 mg/kg in the assay with Colon-26 cells worked out at 7%.
